pKi: −log10 of the molar value. Residues, ends and D or L forms follow the SMILES beside them. *: point of attachment. X1 = CC(C)CCC[C@@H](C)[C@H]1CCC2C3CC=C4C[C@H](SC[C@@H]5CCN6CC[C@@H](CSCC(=O)*)NC6=N5)CC[C@]4(C)C3CC[C@@]21C; X2 = CC(C)(C)[Si](OCC1CCN2CCC(CSCC(=O)*)NC2=N1)(c1ccccc1)c1ccccc1; OBn = c1ccc(CO*)cc1; Bn = c1ccc(C*)cc1
Molecular target: Human immunodeficiency virus type 1 protease (Human immunodeficiency virus 1, UniProt Q72874)
Assay: Competitive inhibition against HIV-1 Protease

| Compound | pKi |
| --- | --- |
| CC(C)CCC[C@@H](C)[C@H]1CCC2C3CC=C4C[C@H](SC[C@@H]5CCN6CC[C@@H](CSCC(=O)NCC(=O)N[C@@H](C)C(=O)N[C@H](C(=O)N[C@@H](CC(C)C)C(=O)N[C@@H](CC(N)=O)C(=O)N[C@@H](Cc7ccccc7)C(=O)OCc7ccccc7)[C@@H](C)OCc7ccccc7)NC6=N5)CC[C@]4(C)C3CC[C@@]21C (some centres not stated) (X1-GAT(Bn)LNF-OBn) | 6.40 |
| CC[C@H](C)[C@H](NC(=O)CNC(=O)CSCC1CCN2CCC(CO[Si](c3ccccc3)(c3ccccc3)C(C)(C)C)N=C2N1)C(=O)N[C@@H](CO)C(=O)N[C@@H](Cc1ccc(O)cc1)C(=O)N[C@@H](CC(N)=O)C(=O)N[C@@H](CC(C)C)C(=O)OC (some centres not stated) [Bicyclic Guanidinium Subunit] (X2-GISYNL-OMe) | 5.22 |

Reference: BindingDB's records for doi:10.1021/jm030871u (2003)
